Experimental data taken from the NIST ThermoML archive (doi:10.1016/j.jct.2012.04.026).
± gives the expanded uncertainty stated by the source.

Legend:
[1] = Liquid, Vibrating tube method
[2] = refractive index (Na D-line) (dimensionless); settings: Liquid, Standard Abbe refractometry
[3] = refractive index (Na D-line) (dimensionless); wn = mass fraction of the nth substance listed; settings: 313.15 K, Liquid, Standard Abbe refractometry
[4] = wn = mass fraction of the nth substance listed; settings: 313.15 K, Liquid, Vibrating tube method

CCCCCC[n+]1ccn(C)c1.O=S(=O)([N-]S(=O)(=O)C(F)(F)F)C(F)(F)F
Settings | mass density, [1] [kg/m3] | refractive index, [2]
298.15 K, 101.33 kPa | 1371.99 ± 0.56 | 1.43016 ± 0.0007
313.15 K, 101 kPa | 1356.95 ± 0.54 | 1.42542 ± 0.0007
313.15 K, 101.3 kPa | 1356.95 ± 0.54 | –
313.15 K, 101.33 kPa | – | 1.42542 ± 0.0007

CCCC[n+]1ccn(C)c1.O=S(=O)([N-]S(=O)(=O)C(F)(F)F)C(F)(F)F
Settings | mass density, [1] [kg/m3] | refractive index, [2]
298.15 K, 101.33 kPa | 1436.1 ± 0.62 | 1.42672 ± 0.0007
313.15 K, 101 kPa | 1420.7 ± 0.6 | 1.42437 ± 0.0007
313.15 K, 101.3 kPa | 1420.7 ± 0.6 | –
313.15 K, 101.33 kPa | – | 1.42437 ± 0.0007

CCCn1cc[n+](C)c1.O=S(=O)([N-]S(=O)(=O)C(F)(F)F)C(F)(F)F
Settings | mass density, [1] [kg/m3] | refractive index, [2]
298.15 K, 101.33 kPa | 1473.97 ± 0.65 | 1.42525 ± 0.0007
313.15 K, 101 kPa | 1458.33 ± 0.64 | 1.42016 ± 0.0007
313.15 K, 101.3 kPa | 1458.33 ± 0.64 | –
313.15 K, 101.33 kPa | – | 1.42016 ± 0.0007

CCn1cc[n+](C)c1.O=S(=O)([N-]S(=O)(=O)C(F)(F)F)C(F)(F)F
Settings | mass density, [1] [kg/m3] | refractive index, [2]
298.15 K, 101.33 kPa | 1518.74 ± 0.7 | 1.42307 ± 0.0007
313.15 K, 101 kPa | 1502.2 ± 0.68 | 1.41695 ± 0.0007
313.15 K, 101.3 kPa | 1502.2 ± 0.68 | –
313.15 K, 101.33 kPa | – | 1.41695 ± 0.0007

CCCCCC[n+]1ccn(C)c1.O=S(=O)([N-]S(=O)(=O)C(F)(F)F)C(F)(F)F + CCO
Settings | mass density, 101 kPa [kg/m3] | mass density, 101.3 kPa [kg/m3] | refractive index, 101 kPa | refractive index, 101.3 kPa | refractive index, 10234 kPa
[3], w2 = 0.099 | – | – | 1.41392 ± 0.0007 | 1.41392 ± 0.0007 | 1.41392 ± 0.0007
[3], w2 = 0.231 | – | – | 1.40128 ± 0.0007 | 1.40128 ± 0.0007 | 1.40128 ± 0.0007
[3], w2 = 0.328 | – | – | 1.39325 ± 0.0007 | 1.39325 ± 0.0007 | 1.39325 ± 0.0007
[3], w2 = 0.529 | – | – | 1.37912 ± 0.0007 | 1.37912 ± 0.0007 | 1.37912 ± 0.0007
[3], w2 = 0.646 | – | – | 1.37165 ± 0.0007 | 1.37165 ± 0.0007 | 1.37165 ± 0.0007
[3], w2 = 0.74 | – | – | 1.36626 ± 0.0007 | 1.36626 ± 0.0007 | 1.36626 ± 0.0007
[3], w2 = 0.901 | – | – | 1.35782 ± 0.0007 | 1.35782 ± 0.0007 | 1.35782 ± 0.0007
[4], w2 = 0.099 | 1270.96 ± 0.47 | 1270.96 ± 0.46 | – | – | –
[4], w2 = 0.231 | 1161.07 ± 0.41 | 1161.07 ± 0.37 | – | – | –
[4], w2 = 0.328 | 1092.32 ± 0.37 | 1092.32 ± 0.31 | – | – | –
[4], w2 = 0.529 | 973.37 ± 0.33 | 973.37 ± 0.24 | – | – | –
[4], w2 = 0.646 | 914.93 ± 0.29 | 914.93 ± 0.24 | – | – | –
[4], w2 = 0.74 | 872.96 ± 0.26 | 872.96 ± 0.24 | – | – | –
[4], w2 = 0.901 | 808.24 ± 0.24 | 808.24 ± 0.24 | – | – | –

CCCC[n+]1ccn(C)c1.O=S(=O)([N-]S(=O)(=O)C(F)(F)F)C(F)(F)F + CCO
Settings | mass density, 101 kPa [kg/m3] | mass density, 101.3 kPa [kg/m3] | refractive index, 101 kPa | refractive index, 101.3 kPa | refractive index, 10234 kPa
[3], w2 = 0.008 | – | – | 1.42305 ± 0.0007 | 1.42305 ± 0.0007 | 1.42305 ± 0.0007
[3], w2 = 0.015 | – | – | 1.42222 ± 0.0007 | 1.42222 ± 0.0007 | 1.42222 ± 0.0007
[3], w2 = 0.032 | – | – | 1.41981 ± 0.0007 | 1.41981 ± 0.0007 | 1.41981 ± 0.0007
[3], w2 = 0.084 | – | – | 1.41301 ± 0.0007 | 1.41301 ± 0.0007 | 1.41301 ± 0.0007
[3], w2 = 0.156 | – | – | 1.40517 ± 0.0007 | 1.40517 ± 0.0007 | 1.40517 ± 0.0007
[3], w2 = 0.202 | – | – | 1.40056 ± 0.0007 | 1.40056 ± 0.0007 | 1.40056 ± 0.0007
[3], w2 = 0.385 | – | – | 1.38611 ± 0.0007 | 1.38611 ± 0.0007 | 1.38611 ± 0.0007
[3], w2 = 0.48 | – | – | 1.37983 ± 0.00071 | 1.37983 ± 0.0007 | 1.37983 ± 0.00071
[4], w2 = 0.008 | 1411.58 ± 0.59 | 1411.58 ± 0.59 | – | – | –
[4], w2 = 0.015 | 1403.51 ± 0.58 | 1403.51 ± 0.58 | – | – | –
[4], w2 = 0.032 | 1384.48 ± 0.57 | 1384.48 ± 0.57 | – | – | –
[4], w2 = 0.084 | 1329.16 ± 0.52 | 1329.16 ± 0.51 | – | – | –
[4], w2 = 0.156 | 1259.12 ± 0.47 | 1259.12 ± 0.45 | – | – | –
[4], w2 = 0.202 | 1218.21 ± 0.44 | 1218.21 ± 0.42 | – | – | –
[4], w2 = 0.385 | 1077.75 ± 0.41 | 1077.75 ± 0.3 | – | – | –
[4], w2 = 0.48 | 1016.97 ± 0.4 | 1016.97 ± 0.25 | – | – | –

CCCn1cc[n+](C)c1.O=S(=O)([N-]S(=O)(=O)C(F)(F)F)C(F)(F)F + CCO
Settings | mass density, 101 kPa [kg/m3] | mass density, 101.3 kPa [kg/m3] | refractive index, 101 kPa | refractive index, 101.3 kPa | refractive index, 10234 kPa
[3], w2 = 0.019 | – | – | 1.41801 ± 0.0007 | 1.41801 ± 0.0007 | 1.41801 ± 0.0007
[3], w2 = 0.035 | – | – | 1.4161 ± 0.0007 | 1.4161 ± 0.0007 | 1.4161 ± 0.0007
[3], w2 = 0.082 | – | – | 1.41105 ± 0.0007 | 1.41105 ± 0.0007 | 1.41105 ± 0.0007
[3], w2 = 0.133 | – | – | 1.40604 ± 0.0007 | 1.40604 ± 0.0007 | 1.40604 ± 0.0007
[3], w2 = 0.186 | – | – | 1.40101 ± 0.0007 | 1.40101 ± 0.0007 | 1.40101 ± 0.0007
[3], w2 = 0.267 | – | – | 1.39403 ± 0.0007 | 1.39403 ± 0.0007 | 1.39403 ± 0.0007
[3], w2 = 0.55 | – | – | 1.37499 ± 0.0007 | 1.37499 ± 0.0007 | 1.37499 ± 0.0007
[4], w2 = 0.019 | 1433.96 ± 0.61 | 1433.96 ± 0.61 | – | – | –
[4], w2 = 0.035 | 1414.83 ± 0.6 | 1414.83 ± 0.59 | – | – | –
[4], w2 = 0.082 | 1362.5 ± 0.55 | 1362.5 ± 0.55 | – | – | –
[4], w2 = 0.133 | 1309.15 ± 0.51 | 1309.15 ± 0.5 | – | – | –
[4], w2 = 0.186 | 1256.95 ± 0.48 | 1256.95 ± 0.45 | – | – | –
[4], w2 = 0.267 | 1183.97 ± 0.43 | 1183.97 ± 0.39 | – | – | –
[4], w2 = 0.55 | 983.52 ± 0.4 | 983.52 ± 0.24 | – | – | –

CCn1cc[n+](C)c1.O=S(=O)([N-]S(=O)(=O)C(F)(F)F)C(F)(F)F + CCO
Settings | mass density, 101 kPa [kg/m3] | mass density, 101.3 kPa [kg/m3] | refractive index, 101 kPa | refractive index, 101.3 kPa | refractive index, 10234 kPa
[3], w2 = 0.014 | – | – | 1.41547 ± 0.0007 | 1.41547 ± 0.0007 | 1.41547 ± 0.0007
[3], w2 = 0.034 | – | – | 1.41333 ± 0.0007 | 1.41333 ± 0.0007 | 1.41333 ± 0.0007
[3], w2 = 0.072 | – | – | 1.40945 ± 0.0007 | 1.40945 ± 0.0007 | 1.40945 ± 0.0007
[3], w2 = 0.126 | – | – | 1.40425 ± 0.0007 | 1.40425 ± 0.0007 | 1.40425 ± 0.0007
[3], w2 = 0.278 | – | – | 1.3915 ± 0.0007 | 1.3915 ± 0.0007 | 1.3915 ± 0.0007
[3], w2 = 0.324 | – | – | 1.38812 ± 0.0007 | 1.38812 ± 0.0007 | 1.38812 ± 0.0007
[3], w2 = 0.635 | – | – | 1.36939 ± 0.0007 | 1.36939 ± 0.0007 | 1.36939 ± 0.0007
[4], w2 = 0.014 | 1481.64 ± 0.66 | 1481.64 ± 0.66 | – | – | –
[4], w2 = 0.034 | 1456.07 ± 0.63 | 1456.07 ± 0.63 | – | – | –
[4], w2 = 0.072 | 1409.69 ± 0.6 | 1409.69 ± 0.59 | – | – | –
[4], w2 = 0.126 | 1347.49 ± 0.55 | 1347.49 ± 0.53 | – | – | –
[4], w2 = 0.278 | 1195.34 ± 0.46 | 1195.34 ± 0.4 | – | – | –
[4], w2 = 0.324 | 1155.44 ± 0.46 | 1155.44 ± 0.36 | – | – | –
[4], w2 = 0.635 | 943.07 ± 0.3 | 943.07 ± 0.24 | – | – | –

CCO [ethanol]
Settings | mass density, [1] [kg/m3] | refractive index, [2]
298.15 K, 101.33 kPa | 785.2 ± 0.24 | –
313.15 K, 101 kPa | 773.03 ± 0.24 | 1.35353 ± 0.0007
313.15 K, 101.3 kPa | 773.03 ± 0.24 | –
313.15 K, 101.33 kPa | – | 1.35353 ± 0.0007

CCCCCCC [heptane]
298.15 K, 101.33 kPa
Settings | mass density [kg/m3] | refractive index
[1] | 679.57 ± 0.25 | –
[2] | – | 1.38529 ± 0.0007
